Assay results taken from the NIST ThermoML archive (doi:10.1021/je101361u).

Test: xn = mol fraction of the nth substance listed
Conditions: 101.3 kPa, Liquid, Vibrating tube method

CCOCCOCCOCC [diethylene glycol diethyl ether] + ClCCCl
mass density [kg/m3]
Conditions	308.15 K	313.15 K	318.15 K	323.15 K	328.15 K	333.15 K
x2 = 0	–	–	–	877.66	–	–
x2 = 0.0234	–	891.38	886.51	881.62	876.73	871.83
x2 = 0.0504	–	895.82	890.92	886	881.07	876.13
x2 = 0.0751	–	900.01	895.06	890.1	885.15	880.18
x2 = 0.1009	–	904.54	899.56	894.58	889.59	884.59
x2 = 0.1504	–	913.47	908.43	903.37	898.31	893.23
x2 = 0.2	–	923.09	917.97	912.84	907.7	902.54
x2 = 0.2546	–	934.27	929.05	923.83	918.61	913.36
x2 = 0.2999	–	944.04	938.75	933.46	928.16	922.86
x2 = 0.35	–	955.6	950.21	944.83	939.44	934.03
x2 = 0.4006	–	968.06	962.59	957.11	951.61	946.09
x2 = 0.4502	–	981.1	975.52	969.94	964.34	958.72
x2 = 0.5002	1000.88	995.21	989.52	983.83	978.12	972.39
x2 = 0.5499	1016.02	1010.23	1004.42	998.59	992.77	986.94
x2 = 0.6	1032.44	1026.51	1020.6	1014.67	1008.71	1002.74
x2 = 0.65	1050.11	1044.07	1038	1031.92	1025.84	1019.73
x2 = 0.6999	1069.3	1063.11	1056.9	1050.67	1044.44	1038.18
x2 = 0.7492	1089.67	1083.34	1077	1070.63	1064.24	1057.81
x2 = 0.8	1112.94	1106.44	1099.91	1093.36	1086.78	1080.17
x2 = 0.85	1137.96	1131.28	1124.57	1117.84	1111.08	1104.27
x2 = 0.9	1165.64	1158.75	1151.82	1144.87	1137.9	1130.88
x2 = 0.95	1196.36	1189.24	1182.08	1174.86	1167.69	1160.44
x2 = 0.975	1213.1	1205.85	1198.56	1191.23	1183.9	1176.53
